Laboratory results reported in patent US8071735B2, “Cotton event MON 88913 and compositions and methods for detection thereof” (priority 2003, dated 2011).

Columns and labels:
[1] = test system: Roundup Ready cotton event 1445; experiment: Field trial, cotton lint yield after glyphosate treatment (10 locations); format: in vivo, Gossypium hirsutum
Excerpt: (§1) The field trials were arranged in a randomized split plot design with three replications and three treatments. The events were planted in two row, 30-foot plots. The treatments consisted of unsprayed, 64 oz/A (1.5 lb ae/A) Roundup Ultra® at the 4, 6, 10, 14-node stages, and 96 oz/A (2.25 lb ae/A) Roundup Ultra® at the 4, 6, 10, 14-node stages. A mid-season plant map was completed on ten plants per plot. Boll retention data was collected for the first and second fruiting positions of the first five fruiting nodes that provides a boll retention value scale of 0-10. A plant with a boll retention value equal to or greater than 3 on the 0-10 scale has value as a new glyphosate tolerant plant selection.
(§2) Yield is a measure of boll retention, cotton plants engineered for glyphosate tolerance that retain a substantial number of bolls in the first and second fruiting positions will maintain a yield advantage over cotton plants that are not as glyphosate tolerant. An effective dose of a glyphosate containing herbicide to control weeds in a field of MON 88913 comprises about 4 oz/A and may exceed 128 oz/A depending on the species of weed to be controlled and the stage of weed development. Glyphosate can be mixed with other herbicides to enhance the herbicidal activity against certain weed species.

cotton event MON 88913 = experiment: as above; format: in vivo, Gossypium hirsutum
Excerpt: as §1, §2

[2] = glyphosate 1.5 lb ae/A (64 oz/A Roundup Ultra) at the 4, 6, 10, 14-node stages
[3] = glyphosate 2.25 lb ae/A (96 oz/A Roundup Ultra) at the 4, 6, 10, 14-node stages

O=C(O)CNCP(=O)(O)O [Glyphosate, N-phosphonomethylglycine]
Yield (lb/A) of 10 Locations, cotton lint [1, 2]: 1044.19 lb/A
Yield (lb/A) of 10 Locations, cotton lint [1, 3]: 831.47 lb/A
Yield (lb/A) of 10 Locations, cotton lint (cotton event MON 88913; [2]): 2587.61 lb/A
Yield (lb/A) of 10 Locations, cotton lint (cotton event MON 88913; [3]): 2412.3 lb/A
